Results reported in patent US11753407B2, “Compounds for treating spinal muscular atrophy” (PTC Therapeutics, Inc., priority 2012, dated 2023).

Columns and labels:
[1] = system: Smn protein in SMA patient fibroblast cells (GM03813); experiment: Smn protein assay in cultured cells (SMN HTRF); type: cell-based, human; details: SMA patient fibroblast cells, 48 hours; for maximum fold (Fold) increase of Smn protein: 7-point concentration data, fold relative to vehicle control; for EC1.5x for Smn protein expression: 7-point concentration curve, SMN HTRF, concentration producing 1.5 times Smn protein vs DMSO vehicle control
Summary of the method: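 Cells were cultured 72 h, seeded at 5,000/well and dosed with seven concentrations (3.16-fold apart) for 48 h. HTRF on lysates, read at 665 and 620 nm, gave blank-corrected ΔF values relative to DMSO. Potency is reported as EC1.5×, efficacy as maximal fold Smn increase.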

[2] = system: SMN2 minigene mRNA (SMN2-A minigene) in HEK293H cells; experiment: SMN2 minigene mRNA splicing RT-qPCR assay in cultured cells; type: cell-based, human; details: Homo sapiens, HEK293-H; concentration increasing full length SMN2 mRNA 1.5-fold relative to vehicle-treated cells; HEK293H cells with SMN2-A minigene, 24 hours, 7-point concentration data; read-out: EC1.5x for production of full length SMN2 mRNA
Summary of the method: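 EC1.5× values derive from a 24 h treatment of SMN2-A minigene HEK293H cells and GAPDH-normalized RT-qPCR of exon 7-included minigene mRNA relative to vehicle-treated cells.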

| SMILES | maximum fold (Fold) increase of Smn protein [1] | EC (1.5-fold increase) [2] [µM] | melting point [°C] | EC1.5x for Smn protein expression [1] |
| --- | --- | --- | --- | --- |
| COc1ccc(-c2cc(=O)n3cc(N4CCNCC4)cc(OC)c3n2)cc1OC [Cpd 70, 2-(3,4-dimethoxyphenyl)-9-methoxy-7-(piperazin-1-yl)-4H-pyrido[1,2-a]pyrimidin-4-one] | * (A maximum fold increase of ≤1.2 is indicated by one star (*)) | 1 to 3 | 185 to 187 |  |
| COc1ccc(-c2cc(=O)n3cc(N4CCNCC4)ccc3n2)cc1F [Cpd 72, 2-(3-fluoro-4-methoxyphenyl)-7-(piperazin-1-yl)-4H-pyrido[1,2-a]pyrimidin-4-one] | *** (a fold increase between >1.35 and ≤1.5 is indicated by three stars (***)) | < 0.1 | 191 to 195 | *** (an EC1.5× between >0.3 μM and ≤1 μM is indicated by three stars (***)) |
| Cc1cn2cc(-c3cc(=O)n4cc(N5CCNCC5)ccc4n3)nc2cn1 [Cpd 74, 2-(6-methylimidazo[1,2-a]pyrazin-2-yl)-7-(piperazin-1-yl)-4H-pyrido[1,2-a]pyrimidin-4-one] | ***** (a fold increase >1.65 is indicated by five stars (*****)) | < 0.1 | 221 to 225 | *** (an EC1.5× between >0.3 μM and ≤1 μM is indicated by three stars (***)) |
| COc1ccc(-c2cc(=O)n3cc(N4CCNCC4)ccc3n2)cc1OC(F)(F)F [Cpd 81, 2-[4-methoxy-3-(trifluoromethoxy)phenyl]-7-(piperazin-1-yl)-4H-pyrido[1,2-a]pyrimidin-4-one] | ** (a fold increase between >1.2 and ≤1.35 is indicated by two stars (**)) | 0.3 to 1 | 158 to 162 |  |
| O=c1cc(-c2ccc(O)c(OC(F)(F)F)c2)nc2ccc(N3CCNCC3)cn12 [Cpd 82, 2-[4-hydroxy-3-(trifluoromethoxy)phenyl]-7-(piperazin-1-yl)-4H-pyrido[1,2-a]pyrimidin-4-one] | ***** (a fold increase >1.65 is indicated by five stars (*****)) | 1 to 3 | 245 to 248 | ** (an EC1.5× between >1 μM and ≤3 μM is indicated by two stars (**)) |
| COc1ccc(-c2cc(=O)n3cc(N4CCNCC4)ccc3c2C#N)cc1OC [Cpd 85, 2-(3,4-dimethoxyphenyl)-4-oxo-7-(piperazin-1-yl)-4H-quinolizine-1-carbonitrile] | *** (a fold increase between >1.35 and ≤1.5 is indicated by three stars (***)) | 1 to 3 | 199 to 202 | * (An EC1.5× for Smn protein expression between >3 μM and ≤10 μM is indicated by one star (*)) |
| COc1ccc(-c2cc(=O)n3cc(N4CCN[C@@H](C)C4)ccc3c2)cc1OC [Cpd 91, 2-(3,4-dimethoxyphenyl)-7-[(3S)-3-methylpiperazin-1-yl]-4H-quinolizin-4-one] | ** (a fold increase between >1.2 and ≤1.35 is indicated by two stars (**)) | 1 to 3 | 243 to 245 |  |
| O=c1cc(-c2cncc(F)c2)nc2ccc(N3CCNCC3)cn12 [Cpd 92, 2-(5-fluoropyridin-3-yl)-7-(piperazin-1-yl)-4H-pyrido[1,2-a]pyrimidin-4-one] | ** (a fold increase between >1.2 and ≤1.35 is indicated by two stars (**)) | 1 to 3 | 201 to 208 |  |
| O=c1cc(-c2ccc3[nH]ccc3c2)nc2ccc(N3CCNCC3)cn12 [Cpd 98, 2-(1H-indol-5-yl)-7-(piperazin-1-yl)-4H-pyrido[1,2-a]pyrimidin-4-one] | *** (a fold increase between >1.35 and ≤1.5 is indicated by three stars (***)) | 1 to 3 | 266 to 272 |  |
| COc1ccc(-c2cc(=O)n3cc(N4CCNCC4)ccc3c2)cc1OC [Cpd 106, 2-(3,4-dimethoxyphenyl)-7-(piperazin-1-yl)-4H-quinolizin-4-one] | **** (a fold increase between >1.5 and ≤1.65 is indicated by four stars (****)) | 0.3 to 1 | 170 to 172 | ** (an EC1.5× between >1 μM and ≤3 μM is indicated by two stars (**)) |
| O=c1cc(-c2ccn3ccnc3c2)nc2ccc(N3CCNCC3)cn12 [Cpd 107, 2-(imidazo[1,2-a]pyridin-7-yl)-7-(piperazin-1-yl)-4H-pyrido[1,2-a]pyrimidin-4-one] | ** (a fold increase between >1.2 and ≤1.35 is indicated by two stars (**)) | 0.3 to 1 | 258 to 270 |  |
| Cc1cn2cc(-c3cc(=O)n4cc(N5CCNCC5)ccc4n3)ccc2n1 [Cpd 109, 2-(2-methylimidazo[1,2-a]pyridin-6-yl)-7-(piperazin-1-yl)-4H-pyrido[1,2-a]pyrimidin-4-one] | **** (a fold increase between >1.5 and ≤1.65 is indicated by four stars (****)) | < 0.1 | 259 to 267 | **** (an EC1.5x≤0.3 μM is indicated by four stars (****)) |
| O=c1cc(-c2cnc3[nH]ccc3c2)nc2ccc(N3CCNCC3)cn12 [Cpd 128, 7-(piperazin-1-yl)-2-(1H-pyrrolo[2,3-b]pyridin-5-yl)-4H-pyrido[1,2-a]pyrimidin-4-one] | *** (a fold increase between >1.35 and ≤1.5 is indicated by three stars (***)) | 0.3 to 1 | 252 to 255 |  |
| COc1ccc(-c2cc(=O)n3cc(C4=CCNCC4)ccc3n2)cc1OC [Cpd 143, 2-(3,4-dimethoxyphenyl)-7-(1,2,3,6-tetrahydropyridin-4-yl)-4H-pyrido[1,2-a]pyrimidin-4-one] | ***** (a fold increase >1.65 is indicated by five stars (*****)) | < 0.1 | 196 to 198 | **** (an EC1.5x≤0.3 μM is indicated by four stars (****)) |
| COc1ccc(-c2cc(=O)n3cc(C4CCNCC4)ccc3n2)cc1OC [Cpd 144, 2-(3,4-dimethoxyphenyl)-7-(piperidin-4-yl)-4H-pyrido[1,2-a]pyrimidin-4-one] | **** (a fold increase between >1.5 and ≤1.65 is indicated by four stars (****)) | < 0.1 | 214 to 217 | **** (an EC1.5x≤0.3 μM is indicated by four stars (****)) |
| CCOc1ccc(-c2cc(=O)n3cc(N4CCNCC4)ccc3n2)cc1F [Cpd 153, 2-(4-ethoxy-3-fluorophenyl)-7-(piperazin-1-yl)-4H-pyrido[1,2-a]pyrimidin-4-one] | ** (a fold increase between >1.2 and ≤1.35 is indicated by two stars (**)) | 0.3 to 1 | 180 to 186 |  |
| Cc1csc(-c2cc(=O)n3cc(N4CCNCC4)ccc3n2)n1 [Cpd 163, 2-(4-methyl-1,3-thiazol-2-yl)-7-(piperazin-1-yl)-4H-pyrido[1,2-a]pyrimidin-4-one] | *** (a fold increase between >1.35 and ≤1.5 is indicated by three stars (***)) | 1 to 3 | 142 to 147 |  |
